Data set [1] has as its target T1, insulin disulfides (heterodimeric insulin) (Homo sapiens, UniProt P01308).
T1 construct: fully disulfide-bonded heterodimeric insulin
The experiment in a line: single-turnover insulin protein disulfide reduction assay (RP-HPLC of insulin heterodimer peak). Particulars: relative GSH:TRX concentrations comparable to the airway, pH 8, FIG. 1. The class given is biochemical. How it is done:
Left side of FIG. 1—polyacrylamide gel electrophoresis of native human thioredoxin-1 (TRX). Lane 1: Molecular weight standards; Lane 2: Oxidized TRX; Lane 3: Oxidized TRX following reaction with dithiothreitol (DTT); Lane 4: Oxidized TRX following reaction with reduced glutathione (GSH); Lane 5: Oxidized TRX following reaction with GSH followed by DTT. Right side of FIG. 1—TRX was oxidized by exposure to ambient air for one week then incubated with either DTT or GSH at pH 8 for 1 hour followed by purification over a size exclusion column to remove unreacted free DTT or GSH after which the TRX was collected and used in a single-turnover insulin protein-disulfide reduction assay. […] After 30 min, 60 min and 120 minutes aliquots were taken and diluted with 0.1% TFA and 17 uM (final) iodoacetic acid and analyzed over RP-HPLC. Absorbance was monitored at 214 nm and the peak area of the insulin heterodimer fraction was determined at each time point to quantify TRX protein disulfide-reducing activity.
C35STRX was oxidized and Lys residues were conjugated to an azido-PEG linker. The conjugated material was then reduced and tested for molecular weight using SDS-PAGE (FIG. 5D) and MALDI-TOF (FIG. 5E) and activity assessed using a single-turnover insulin protein disulfide reduction assay. […]

For data set [2] the following is noted: inhalation vs. i.v.; cited from earlier work.

T1 sequence (P01308 25-54 limits assumed): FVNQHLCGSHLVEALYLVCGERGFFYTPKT
T1 sequence (P01308 90-110 limits assumed): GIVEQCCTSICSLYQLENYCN

For the compound `N[C@@H](CCC(=O)N[C@@H](CS)C(=O)NCC(=O)O)C(=O)O` [GSH, reduced glutathione, reference compound], in data set [1], the “restoration of insulin disulfide bond reduction activity to oxidized TRX” value is reported as “capable of restoring insulin disulfide bond reduction activity to oxidized TRX”.

`CN[C@H](CC(C)C)C(=O)N[C@H]1C(=O)N[C@@H](CC(N)=O)C(=O)N[C@H]2C(=O)N[C@H]3C(=O)N[C@H](C(=O)N[C@H](C(=O)O)c4cc(O)cc(O)c4-c4cc3ccc4O)[C@H](O)c3ccc(c(Cl)c3)Oc3cc2cc(c3O[C@@H]2O[C@H](CO)[C@@H](O)[C@H](O)[C@H]2O[C@H]2C[C@](C)(N)[C@H](O)[C@H](C)O2)Oc2ccc(cc2Cl)[C@H]1O` [vancomycin]: the “systemic exposure level by inhalation delivery relative to equivalent i.v.” value in data set [2] was roughly 50%.

The record behind these values is US20210213134A1, “THIOL-BASED MULTIVALENT DRUG DELIVERY COMPOSITIONS” (ORPRO THERAPEUTICS, INC., priority 2018, published 2021).
